Assay results taken from US4156016A, “Indole compounds and process for their preparation” (Hoffmann-La Roche Inc., priority 1977, dated 1979).

How the values were obtained:
serum PGF2α = test: Inhibition of prostaglandin formation: serum PGF2α by radioimmunoassay (rats); assay type: in vivo, male rats; conditions: rats; for serum PGF2α ED50: 60 min; for ED50: Rattus norvegicus, 1 h
Acute toxicity in mice = conditions: mouse, in vivo
Experimental: CF-IS mice of both sexes weighing 17-25 grams were used. The compounds were ground in a mortar and suspended in 5% gum acacia for oral or intraperitoneal administration. Eight to ten mice were used per dose level. […] The LD50 was calculated by the method of Miller et al., Proc. Soc. Exp. Biol. Med., 57, pages 261-264 (1944).

[1] = system: arachidonic acid induced diarrhea; test: Arachidonic acid diarrhea prevention (mice); assay type: in vivo, Carworth Farm CF-1 male mice
Experimental: Carworth Farm CF-1 male mice weighing 18-20 grams were administered the test compound by either the oral or intraperitoneal route one hour prior to the intraperitoneal administration of 4 mg/kg of arachidonic acid (Hoffmann-La Roche Inc.). […] The diarrhea was graded on paper towels as follows: 0=solid pellet or no bowel movement; 1=slightly soft pellet with little or no wet ring formation; 2=moderately soft pellet with definite wet ring formation; 3=soft pellet with large wet ring formation; and 4=amorphous pellet with very large wet ring formation.
The calculation of the ED50 was made according to the method of Miller et al., Proc. Soc.

[2] = system: platelet prostaglandin formation; conditions: cited from earlier work
ADP induced aggregation = test: Inhibition of ADP-induced platelet aggregation (second wave) in human platelet-rich plasma; assay type: cell-based; conditions: incubation in human citrated platelet-rich plasma
Experimental: (§1) Venous blood was collected from human volunteers in siliconized 20 ml. […] Platelet rich plasma (PRP) was separated from the red blood cells by centrifugation at 180×g for 15 minutes at room temperature. Platelet poor plasma (PPP) was prepared by centrifuging PRP at 1000×g for 2 minutes.
(§2) Techniques established by Born et al., J. Physiol. […] PRP (1 ml.) was added to a siliconized cuvette containing a siliconized stirring bar and placed in a densitometer maintained at 37° C. and stirred at 1000 RPM. Various concentrations of test compounds were added in 50 μl of saline and incubated with PRP for 5 minutes. Aggregation was initiated by the addition of sufficient concentrations of ADP (Sigma Chemical Co.), epinephrine HCl (Parke, Davis & Co., Detroit, Michigan), or human mammary gland collagen (obtained from Roosevelt Hospital, N.Y.) to give about 60% of maximum aggregation response. The light transmission through PPP was used to determine maximum response. The percent inhibition of aggregation caused by the drug was calculated from the strip chart recordings at the point of maximum collagen response.

[3] = Gastric ulcer induction (rats); set-up: species or system male Wistar rats; conditions: rat, in vivo, po, rats; read-out: Ulcer incidence ED50
Experimental: The test is a modification of that described by Brodie et al., Gastroenterology, 53, pages 604-610 (1967). Male Wistar rats (Royal Hart Laboratories) were deprived of food for 18 hours prior to testing. Tap water was permitted ad libitum. Test compounds were administered orally four hours to autopsy. The rats were sacrificed under ethyl ether anesthesia, opened along the ventral midline and the stomachs removed. The stomach was divided along the lesser curvature, everted, rinsed in saline, and examined for the presence of focal hemorrhage. Ulcers were rated on an all or none basis for incidence and, in addition, each stomach is graded for severity of ulcers formed. Ulcer scores: 0=none, 1=trace, 2=mild, 3=moderate, and 4=severe. The results of the ulcer scores obtained were subjected to statistical analysis by the student `t` test.

[4] = system: biosynthesis of thromboxanes; conditions: cited from earlier work
[5] = system: Collagen-Induced Platelet Aggregation; test: Effect of compounds in whole blood: collagen-induced platelet aggregation after incubation in whole blood; assay type: cell-based, human; conditions: incubation in whole blood
Experimental: Aliquots of citrated human blood (10 ml.) were exposed to different concentrations of the "nitrile" by mechanically shaking at room temperature for 5 minutes.

[6] = system: Epinephrine induced aggregation; test: Inhibition of epinephrine-induced platelet aggregation (second wave) in human platelet-rich plasma; assay type: cell-based; conditions: incubation in human citrated platelet-rich plasma
Experimental: as §1, §2

[7] = system: Collagen-Induced Platelet Aggregation; test: Inhibition of collagen-induced platelet aggregation in human platelet-rich plasma; assay type: cell-based
Experimental: as §1, §2

platelet aggregation = conditions: cited from earlier work
thromboxanes = conditions: submicrogram concentrations of PGE2; cited from earlier work
[8] = Ulcerogenicity (general statement)
[9] = Toxicity (general statement)
[10] = system: human blood-platelet aggregation; test: Inhibition of human blood-platelet aggregation (general statement)
prostaglandin formation = test: Inhibition of prostaglandin formation (general statement)
[11] = incubation in human citrated platelet-rich plasma, read-out: IC50 collagen

## CC(=O)Oc1ccccc1C(=O)O [Aspirin, reference compound]
Serum PGF2α; i.p.
  serum PGF2α ED50: 10 mg/kg
Serum PGF2α; p.o.
  serum PGF2α ED50: 10 mg/kg
Acute toxicity in mice; po
  LD50 at 120 h: > 1000 mg/kg
[1]; p.o.
  arachidonic acid induced diarrhea ED50: 1.3 mg/kg
[2]
  inhibition of platelet prostaglandin formation (in words): known inhibitors of platelet prostaglandin formation
ADP induced aggregation
  IC50: 30000 nM
[3]
  TD50 at 4 h: 49 mg/kg
[4]
  inhibition of the biosynthesis of thromboxanes (in words): inhibits the biosynthesis of thromboxanes
[5]
  IC50: 1500 nM
[6]
  IC50: 17000 nM
[7]; [11]
  IC50: 30000 nM

## CCCCC[C@H](O)/C=C/[C@H]1[C@H](O)CC(=O)[C@H]1CCCCCCC(=O)O [Example 8-iso-PGE1, (8β,11α,13E,15S)-11,15-dihydroxy-9-oxoprost-13-en-1-oic acid]
Platelet aggregation
  inhibition of platelet aggregation (in words): demonstrated to inhibit platelet aggregation

## COc1ccc2c(c1)c(CC(=O)O)c(C)n2C(=O)c1ccc(Cl)cc1 [Indomethacin, reference compound]
Serum PGF2α; ip
  ED50: < 1 mg/kg
Serum PGF2α; po
  ED50: 1 mg/kg
Acute toxicity in mice; ip
  LD50 at 120 h: 193 mg/kg
Acute toxicity in mice; po
  LD50 at 120 h: 430 mg/kg
[1]; Mus musculus, po
  ED50: 0.8 mg/kg
[2]
  inhibition of platelet prostaglandin formation (in words): known inhibitors of platelet prostaglandin formation
ADP induced aggregation
  IC50: 100 nM
[3]
  TD50 at 4 h: 3 mg/kg
[5]; Homo sapiens, Platelet
  IC50: 400 nM
[6]
  IC50: 2000 nM
[7]; [11]
  IC50: 1000 nM

## CCCCC[C@H](O)/C=C/[C@H]1[C@H](O)CC(=O)[C@@H]1CCCCCCC(=O)O [PGE1, (11,13E,15S)-11,15-dihydroxy-9-oxoprost-13-en-1-oic acid]
Platelet aggregation
  inhibition of platelet aggregation (in words): demonstrated to inhibit platelet aggregation

## CCCCC[C@H](O)/C=C/[C@H]1[C@H](O)CC(=O)[C@@H]1C/C=C\CCCC(=O)O [PGE2]
thromboxanes
  potentiation of biological effects of thromboxanes: ≤ 700%

## NC(=O)c1[nH]c2ccc(C(O)(C(F)(F)F)C(F)(F)F)cc2c1-c1ccccc1 [amide, 3-Phenyl-5-[2,2,2-trifluoro-1-hydroxy-1-(trifluoromethyl)ethyl]indole-2-carboxamide]
[8]
  ulcerogenicity (in words): non-ulcerogenic
[9]
  toxicity (in words): low in toxicity
[10]
  inhibition of human blood-platelet aggregation (in words): inhibit prostaglandin formation and human blood-platelet aggregation
Prostaglandin formation
  inhibition of prostaglandin formation (in words): inhibit prostaglandin formation
[7]; Homo sapiens, Platelet, Table 7, read-out: Inhibition of collagen-induced platelet aggregation, Activity IC50
  IC50: 3000 nM

## CCCCCC[C@H](O)/C=C/[C@H]1[C@H](O)CC(=O)[C@@H]1CCCCCCC(=O)O [ω-homo PGE1, (11α,13E,15S)-11,15-dihydroxy-20-methyl-9-oxoprost-13-en-1-oic acid]
Platelet aggregation
  inhibition of platelet aggregation (in words): demonstrated to inhibit platelet aggregation
